Literature values in publication PMC12221116, “Novel Quinazolinones Active against Multidrug‐Resistant Mycobacterium Tuberculosis: Synthesis, Antimicrobial Evaluation, and in Silico Exploration of Penicillin‐Binding Protein 1A as a Potential Target” (Chemmedchem, 2025).
“And” between values parts separate entries of the source, which are not always exact repeats. Identical values can stand only once.

Legend:
Protein RecA = tested on: Protein RecA; set-up: method as in ChEMBL; conditions: target CHEMBL1741171; ref ChEMBL; cited from earlier work
Replicative DNA helicase = molecular target: Replicative DNA helicase; set-up: method as in ChEMBL; conditions: target CHEMBL1741192; ref ChEMBL; cited from earlier work

For `O=c1c2ccccc2nc(/C=C/c2cccnc2)n1Cc1ccccc1` [CHEMBL1567670], the EC50 (Protein RecA) is listed as 9.92 µM and the AC50 (Replicative DNA helicase) is listed as 13.6 µM and 9.29 µM.
